Experimental data taken from US20060045953A1 (priority 2004, published 2006).
Read-outs that look alike come from different tables or passages of the source.

Target: T1, hT1R1/hT1R3 umami receptor (Homo sapiens, UniProt Q7RTX0+Q7RTX1)
T1 construct: expressed in transfected cells; host or cells: HEK293 derivative stably expressing Gα15, clone I-17, expression induced with mifepristone
T1 sequence (Q7RTX1 21-841): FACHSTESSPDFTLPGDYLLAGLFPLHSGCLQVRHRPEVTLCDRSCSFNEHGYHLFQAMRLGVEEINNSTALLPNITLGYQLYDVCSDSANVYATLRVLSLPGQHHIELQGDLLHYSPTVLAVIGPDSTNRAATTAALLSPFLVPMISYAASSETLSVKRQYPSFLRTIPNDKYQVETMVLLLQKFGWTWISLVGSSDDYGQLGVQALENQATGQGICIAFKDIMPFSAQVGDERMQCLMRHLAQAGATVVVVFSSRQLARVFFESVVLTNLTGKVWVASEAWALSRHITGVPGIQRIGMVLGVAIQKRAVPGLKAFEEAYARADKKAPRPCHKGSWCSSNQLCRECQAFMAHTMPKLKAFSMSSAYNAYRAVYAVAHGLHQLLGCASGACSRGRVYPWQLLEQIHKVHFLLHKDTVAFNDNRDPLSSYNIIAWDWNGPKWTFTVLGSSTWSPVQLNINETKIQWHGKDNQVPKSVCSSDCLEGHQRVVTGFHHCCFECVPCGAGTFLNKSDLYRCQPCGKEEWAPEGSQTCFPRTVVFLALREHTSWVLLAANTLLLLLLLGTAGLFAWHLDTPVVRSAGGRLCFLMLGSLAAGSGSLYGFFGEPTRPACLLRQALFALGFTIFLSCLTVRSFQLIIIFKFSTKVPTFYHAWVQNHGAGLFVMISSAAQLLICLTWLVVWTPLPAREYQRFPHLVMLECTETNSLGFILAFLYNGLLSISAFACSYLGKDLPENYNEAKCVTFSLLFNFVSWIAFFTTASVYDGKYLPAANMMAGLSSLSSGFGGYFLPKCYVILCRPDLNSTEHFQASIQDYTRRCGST
T1 sequence (Q7RTX0 21-852): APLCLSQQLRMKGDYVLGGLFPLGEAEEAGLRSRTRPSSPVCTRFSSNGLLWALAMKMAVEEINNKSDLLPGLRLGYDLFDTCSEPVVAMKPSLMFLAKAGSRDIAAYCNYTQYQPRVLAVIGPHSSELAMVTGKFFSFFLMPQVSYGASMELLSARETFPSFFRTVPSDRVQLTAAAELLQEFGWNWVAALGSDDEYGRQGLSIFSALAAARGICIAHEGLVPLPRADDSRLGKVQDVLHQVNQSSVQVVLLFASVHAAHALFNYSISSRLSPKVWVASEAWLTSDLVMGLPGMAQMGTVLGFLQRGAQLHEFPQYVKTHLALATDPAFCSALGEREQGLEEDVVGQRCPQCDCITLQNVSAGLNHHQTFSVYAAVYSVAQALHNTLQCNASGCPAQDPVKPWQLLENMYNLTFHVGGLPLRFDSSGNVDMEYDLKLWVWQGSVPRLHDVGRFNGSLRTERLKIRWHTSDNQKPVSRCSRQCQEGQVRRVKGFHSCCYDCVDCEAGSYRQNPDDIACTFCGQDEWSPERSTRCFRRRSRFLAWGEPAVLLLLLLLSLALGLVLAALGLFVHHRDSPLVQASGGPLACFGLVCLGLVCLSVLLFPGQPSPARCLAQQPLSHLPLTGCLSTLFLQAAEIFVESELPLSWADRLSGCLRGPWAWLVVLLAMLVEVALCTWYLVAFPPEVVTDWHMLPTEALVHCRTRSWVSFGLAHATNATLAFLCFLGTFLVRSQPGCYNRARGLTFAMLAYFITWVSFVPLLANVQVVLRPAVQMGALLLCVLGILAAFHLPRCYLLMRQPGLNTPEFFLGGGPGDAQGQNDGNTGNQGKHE
Experiment: In vitro hT1R1/hT1R3 umami taste receptor activation assay (FLIPR, dose response)
Format: cell-based

[1] = Table A, Umami Amides, read-out: Umami EC50
[2] = Table C, Umami Ureas, read-out: Umami EC50
[3] = read-out: EC50 for activation of a hT1R1/hT1R3 umami receptor expressed in an HEK293 cell line

Structure (SMILES)	EC50 [1]	EC50 [3]	other results
CCOc1ccc(C(=O)NC(CC)CC(C)C)cc1C (centres unmarked) [Example A72, 4-ethoxy-3-methyl-N-(5-methylhexan-3-yl)benzamide]	340 nM		
CCCC(CCC)NC(=O)Nc1ccc(C)cc1Cl [Example C20, 1-(2-chloro-4-methylphenyl)-3-(heptan-4-yl)urea]			EC50 [2]: 90 nM
CC(=O)Oc1ccccc1CNC(=O)C(=O)NCCc1ccccn1 [Example 142]		8500 nM	
CCCC(CCC)NC(=O)c1ccc(OCC)cc1 [Example A68, 4-ethoxy-N-(heptan-4-yl)benzamide]	320 nM		
COc1ccc(NC(=O)NC2CCCCC2C)c(OC)c1 (centres unmarked) [Example C8, 1-(2,4-dimethoxyphenyl)-3-(2-methylcyclohexyl)urea]			EC50 [2]: 1410 nM
O=C(NCCc1ccccn1)C(=O)NCc1ccccc1O [Example 148, N-(2-Hydroxybenzyl)-N′-(2-(pyridin-2-yl)ethyl)oxalamide]		3110 nM	
COC(=O)[C@@H](CC(C)C)NC(=O)c1ccc(F)c(C)c1 [Example 66, (R)-methyl 2-(4-fluoro-3-methylbenzamido)-4-methylpentanoate]		320 nM	
C=Cc1ccc(C(=O)NC(CCC)CCC)cc1 [Example A78, N-(heptan-4-yl)-4-vinylbenzamide]	460 nM		
CCCC(CC)NC(=O)c1ccc(C)c(SC)c1 (centres unmarked) [Example A81, N-(hexan-3-yl)-4-methyl-3-(methylthio)benzamide]	500 nM		
COc1ccc2c(c1)CCC2NC(=O)c1cccc(OC)c1N (centres unmarked) [Example A126, 2-amino-3-methoxy-N-(5-methoxy-2,3-dihydro-1H-inden-1-yl)benzamide]	40 nM		
CCC/C=C\C(=O)NC(CCC)CCC [Example D9, (Z)-N-(heptan-4-yl)hex-2-enamide]			EC50 (Table D, Umami Acrylamides, read-out: Umami EC50): 980 nM
CCCC(CCC)NC(=O)c1ccc2nc(C)oc2c1 [Example 46, 2-Methyl-benzooxazole-6-carboxylic acid (1-propyl-butyl)-amide]		2100 nM	
CCOc1ccc(NC(=O)c2c(Cl)ccc(Cl)c2OC)cc1 [Example A1, 3,6-Dichloro-N-(4-ethoxy-phenyl)-2-methoxy-benzamide]	220 nM		
CCCC(COC)NC(=O)c1ccc(OC)c(C)c1 (centres unmarked) [Example A97, 4-methoxy-N-(1-methoxypentan-2-yl)-3-methylbenzamide]	850 nM		
COc1ccc(CNC(=O)C(=O)NCCCc2ccccn2)c(OC)c1 [Example 127, N-(2,4-Dimethoxy-benzyl)-N′-(3-pyridin-2-yl-propyl)-oxalamide]		1840 nM	
CCCC(CCC)NC(=O)c1csc(C)n1 [Example 100, N-(heptan-4-yl)-2-methylthiazole-4-carboxamide]		7200 nM	
CCCC(CCC)NC(=O)c1cc2cc(OC)ccc2o1 [Example A10, N-(heptan-4-yl)-5-methoxybenzofuran-2-carboxamide]	910 nM		
COc1cccc(C(=O)NC2CCCc3ccccc32)c1O (centres unmarked) [Example A87, 2-hydroxy-3-methoxy-N-(1,2,3,4-tetrahydronaphthalen-1-yl)benzamide]	540 nM		
COc1ccc(CNC(=O)c2sccc2C)c(OC)c1 [Example 108, 3-Methyl-thiophene-2-carboxylic acid 2,4-dimethoxy-benzylamide]		5600 nM	
CCC(CC(C)C)NC(=O)c1ccc2c(c1)OCO2 (centres unmarked) [Example 5, N-(5-methylhexan-3-yl)benzo[d][1,3]dioxole-5-carboxamide]		570 nM	
CCCC(CC(C)C)NC(=O)c1ccc(OCC)c(C)c1 (centres unmarked) [Example A92, 4-ethoxy-3-methyl-N-(2-methylheptan-4-yl)benzamide]	650 nM		
CCCC(NC(=O)c1ccc2nc(C)oc2c1)C(C)C (centres unmarked) [Example A26, 2-methyl-N-(2-methylhexan-3-yl)benzo[d]oxazole-6-carboxamide]	1600 nM		

Structure (SMILES)	EC50 [1]	EC50 [3]	other results
CCCOc1ccc(C(=O)N[C@H](CC(C)C)C(=O)OC)cc1 [Example A82, (R)-methyl 4-methyl-2-(4-propoxybenzamido)pentanoate]	510 nM		
CCC(CC(C)C)NC(=O)/C=C/c1ccc(OC)cc1 (centres unmarked) [Example 75]		240 nM	
COC(=O)[C@H](NC(=O)c1ccc2c(c1)OCO2)C(C)C [Example 10, (R)-methyl 2-(benzo[d][1,3]dioxole-6-carboxamido)-3-methylbutanoate]		1160 nM	
COc1cccc(C(=O)N[C@H]2CCCc3ccccc32)c1N			EC50 (opposite enantiomers compared, read-out: AFFINITY FOR T1R1/T1R3 SAVORY RECEPTOR EC50 UM): 10 nM
COC(=O)[C@@H](CC(C)C)NC(=O)c1ccc2c(c1)CCO2 [Example A46, (R)-methyl 2-(2,3-dihydrobenzofuran-5-carboxamido)-4-methylpentanoate]	1320 nM		
CCCC(CCC)NC(=O)Nc1ccc(C)cc1C [Example C29, 1-(2,4-dimethylphenyl)-3-(heptan-4-yl)urea]			EC50 [2]: 790 nM
CCCC(CCC)NC(=O)/C=C/c1cccs1 [Example 77, (E)-N-(heptan-4-yl)-3-(thiophen-2-yl)acrylamide]		440 nM	
CCC(CC)NC(=O)c1ccc(OC)c(Cl)c1 [Example 61, 3-chloro-4-methoxy-N-(pentan-3-yl)benzamide]		560 nM	
CCC(NC(=O)Nc1ccc(Cl)cc1Cl)c1ccccc1 (centres unmarked) [Example C2, 1-(2,4-dichlorophenyl)-3-(1-phenylpropyl)urea]			EC50 [2]: 490 nM
CCCOC(=O)[C@@H](CC(C)C)NC(=O)c1ccc2c(c1)OCO2 [Example A51, (R)-propyl 2-(benzo[d][1,3]dioxole-5-carboxamido)-4-methylpentanoate]	1580 nM		
CCCC(CCC)NC(=O)c1ccc(N(CC)CC)cc1 [Example 92, 4-(diethylamino)-N-(heptan-4-yl)benzamide]		7600 nM	
C=Cc1ccccc1NC(=O)NC(CCC)CCC [Example C30, 1-(heptan-4-yl)-3-(2-vinylphenyl)urea]			EC50 [2]: 790 nM
CCCC(CCC)NC(=O)c1cc2ccccc2o1 [Example 25, benzofuran-2-carboxylic(1-propylbutyl)amide]		880 nM	
CCCC(CCC)NC(=O)c1cnc2ccccc2c1 [Example 102, N-(heptan-4-yl)quinoline-3-carboxamide]		15800 nM	
CCC(NC(=O)c1ccc(OC)c(C)c1)c1ccc(OC)cc1 (centres unmarked) [Example A96, 4-methoxy-N-(1-(4-methoxyphenyl)propyl)-3-methylbenzamide]	760 nM		
CCCC(CCC)NC(=O)c1ccc(C)s1 [Example A38, 5-Methyl-thiophene-2-carboxylic acid (1-propyl-butyl)-amide]	1220 nM		
Cc1ccccc1CNC(=O)C(=O)NCCc1ccccn1 [Example 145]		590 nM	
Cc1ccc(C(=O)NC2CCCCC2C)cc1C (centres unmarked) [Example A124, 3,4-dimethyl-N-(2-methylcyclohexyl)benzamide]	10 nM		
COC(=O)[C@@H](CC(C)C)NC(=O)c1ccc(OC)c(Cl)c1 [Example 62, (R)-methyl 2-(3-chloro-4-methoxybenzamido)-4-methylpentanoate]		80 nM	
CCCC(CCC)NC(=O)c1ccc2nc(CC)oc2c1 [Example A27, 2-ethyl-N-(heptan-4-yl)benzo[d]oxazole-6-carboxamide]	1610 nM		
O=C(NCCc1ccccn1)C(=O)NCc1cccc2c1OCCO2 [Example 137, N-((2,3-dihydrobenzo[b][1,4]dioxin-5-yl)methyl)-N′-(2-(pyridin-2-yl)ethyl) oxalamide]		300 nM	
CCCC(CCC)NC(=O)c1ccc2c(c1)OC(C)O2 (centres unmarked) [Example 18, N-(heptan-4-yl)-2-methylbenzo[d][1,3]dioxole-5-carboxamide]		100 nM	
